From US8329717B2, “Pyrimidine derivatives and their use for controlling undesired plant growth” (Bayer Cropscience AG, priority 2008, dated 2012)

Tests used:
[1] = system: Amaranthus retroflexus; assay: Post-emergence herbicidal effect; assay type: in vivo; details: Dosage 320 g/ha, one-leaf stage, visual scoring after ca. 3 weeks vs untreated controls, 100% = plants have died
Experimental: (§1) The following abbreviations are used in the tables below: [table] 2. Post-Emergence Herbicidal Effect and Crop Plant Compatibility Seeds of monocotyledonous or dicotyledonous weed plants or crop plants are planted in wood-fiber pots in sandy loam, covered with earth and grown in a greenhouse under good growth conditions. 2 to 3 weeks after sowing, the test plants are treated in the one-leaf stage. The compounds according to the invention, formulated in the form of wettable powders (WP) or as emulsion concentrates (EC), are then sprayed onto the green plant parts as aqueous suspension or emulsion at a water application rate of 600 to 800 l/ha (converted) with the addition of 0.2% of wetting agent. The dosage of the compounds according to the invention is given in grams per hectare. After ca. 3 weeks' standing time of the test plants in the greenhouse under optimum growth conditions, the effect of the preparations is scored visually in comparison with untreated controls (herbicidal effect in percent (%): 100% effect=plants have died, 0% effect=as control plants).

[2] = system: Lolium multiflorum; assay: Post-emergence herbicidal effect; assay type: in vivo; details: Dosage 320 g/ha, one-leaf stage, visual scoring after ca. 3 weeks vs untreated controls, 100% = plants have died
Experimental: as §1

[3] = system: Veronica persica; assay: Post-emergence herbicidal effect; assay type: in vivo; details: Dosage 320 g/ha, one-leaf stage, visual scoring after ca. 3 weeks vs untreated controls, 100% = plants have died
Experimental: as §1

[4] = system: Stellaria media; assay: Post-emergence herbicidal effect; assay type: in vivo; details: Dosage 320 g/ha, one-leaf stage, visual scoring after ca. 3 weeks vs untreated controls, 100% = plants have died
Experimental: as §1

[5] = system: Echinochloa crus-galli; assay: Post-emergence herbicidal effect; assay type: in vivo; details: Dosage 320 g/ha, one-leaf stage, visual scoring after ca. 3 weeks vs untreated controls, 100% = plants have died
Experimental: as §1

[6] = system: Alopecurus myosuroides; assay: Post-emergence herbicidal effect; assay type: in vivo; details: Dosage 320 g/ha, one-leaf stage, visual scoring after ca. 3 weeks vs untreated controls, 100% = plants have died
Experimental: as §1

[7] = system: Amaranthus retroflexus; assay: Pre-emergence herbicidal effect; assay type: in vivo; details: Dosage 320 g/ha, visual scoring after 3 weeks vs untreated controls, 100% = plants have died
In short: (§2)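 Damage rated visually after 3 weeks in greenhouse relative to untreated plants, 100% meaning plants died and 0% unaffected. Compounds, dosed in grams per hectare as WP or EC in 600 to 800 l/ha water plus 0.2% wetting agent, were applied pre-emergence to soil over seeds sown in sandy loam.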

[8] = system: Lolium multiflorum; assay: Pre-emergence herbicidal effect; assay type: in vivo; details: Dosage 320 g/ha, visual scoring after 3 weeks vs untreated controls, 100% = plants have died
In short: as §2

[9] = system: Cyperus esculentus; assay: Pre-emergence herbicidal effect; assay type: in vivo; details: Dosage 320 g/ha, visual scoring after 3 weeks vs untreated controls, 100% = plants have died
In short: as §2

[10] = system: Veronica persica; assay: Pre-emergence herbicidal effect; assay type: in vivo; details: Dosage 320 g/ha, visual scoring after 3 weeks vs untreated controls, 100% = plants have died
In short: as §2

[11] = system: Stellaria media; assay: Pre-emergence herbicidal effect; assay type: in vivo; details: Dosage 320 g/ha, visual scoring after 3 weeks vs untreated controls, 100% = plants have died
In short: as §2

[12] = system: Setaria viridis; assay: Pre-emergence herbicidal effect; assay type: in vivo; details: Dosage 320 g/ha, visual scoring after 3 weeks vs untreated controls, 100% = plants have died
In short: as §2

[13] = system: Matricaria inodora; assay: Pre-emergence herbicidal effect; assay type: in vivo; details: Dosage 320 g/ha, visual scoring after 3 weeks vs untreated controls, 100% = plants have died
In short: as §2

[14] = system: Echinochloa crus-galli; assay: Pre-emergence herbicidal effect; assay type: in vivo; details: Dosage 320 g/ha, visual scoring after 3 weeks vs untreated controls, 100% = plants have died
In short: as §2

[15] = system: Viola tricolor; assay: Pre-emergence herbicidal effect; assay type: in vivo; details: Dosage 320 g/ha, visual scoring after 3 weeks vs untreated controls, 100% = plants have died
In short: as §2

[16] = system: Alopecurus myosuroides; assay: Pre-emergence herbicidal effect; assay type: in vivo; details: Dosage 320 g/ha, visual scoring after 3 weeks vs untreated controls, 100% = plants have died
In short: as §2

[17] = logp (HCOOH), chemicophysical data; details: for chromatographic logP: HCOOH (formic acid)
[18] = system: Abutilon theophrasti; assay: Post-emergence herbicidal effect; assay type: in vivo; details: Dosage 320 g/ha, one-leaf stage, visual scoring after ca. 3 weeks vs untreated controls, 100% = plants have died
Experimental: as §1

[19] = system: Setaria viridis; assay: Post-emergence herbicidal effect; assay type: in vivo; details: Dosage 320 g/ha, one-leaf stage, visual scoring after ca. 3 weeks vs untreated controls, 100% = plants have died
Experimental: as §1

[20] = system: Matricaria inodora; assay: Post-emergence herbicidal effect; assay type: in vivo; details: Dosage 320 g/ha, one-leaf stage, visual scoring after ca. 3 weeks vs untreated controls, 100% = plants have died
Experimental: as §1

[21] = system: Viola tricolor; assay: Post-emergence herbicidal effect; assay type: in vivo; details: Dosage 320 g/ha, one-leaf stage, visual scoring after ca. 3 weeks vs untreated controls, 100% = plants have died
Experimental: as §1

[22] = system: Avena fatua; assay: Pre-emergence herbicidal effect; assay type: in vivo; details: Dosage 320 g/ha, visual scoring after 3 weeks vs untreated controls, 100% = plants have died
In short: as §2

[23] = system: Abutilon theophrasti; assay: Pre-emergence herbicidal effect; assay type: in vivo; details: Dosage 320 g/ha, visual scoring after 3 weeks vs untreated controls, 100% = plants have died
In short: as §2

[24] = system: PHBPU; assay: Post-emergence herbicidal effect; assay type: in vivo; details: Dosage 320 g/ha, one-leaf stage, visual scoring after ca. 3 weeks vs untreated controls, 100% = plants have died
Experimental: as §1, with “2.” for “The following abbreviations are used in the tables below: [table] 2.”

[25] = system: Polygonum convolvulus; assay: Post-emergence herbicidal effect; assay type: in vivo; details: Dosage 320 g/ha, one-leaf stage, visual scoring after ca. 3 weeks vs untreated controls, 100% = plants have died
Experimental: as §1

[26] = system: Polygonum convolvulus; assay: Pre-emergence herbicidal effect; assay type: in vivo; details: Dosage 320 g/ha, visual scoring after 3 weeks vs untreated controls, 100% = plants have died
In short: as §2

[27] = system: Avena fatua; assay: Post-emergence herbicidal effect; assay type: in vivo; details: Dosage 320 g/ha, one-leaf stage, visual scoring after ca. 3 weeks vs untreated controls, 100% = plants have died
Experimental: as §1

Structure (SMILES)	Post-emergence herbicidal effect AMARE [1] [%]	Post-emergence herbicidal effect LOLMU [2] [%]	Post-emergence herbicidal effect VERPE [3] [%]	Post-emergence herbicidal effect STEME [4] [%]	Post-emergence herbicidal effect ECHCG [5] [%]	Post-emergence herbicidal effect ALOMY [6] [%]	Pre-emergence herbicidal effect AMARE [7] [%]	Pre-emergence herbicidal effect LOLMU [8] [%]	Pre-emergence herbicidal effect VERPE [10] [%]	Pre-emergence herbicidal effect STEME [11] [%]	Pre-emergence herbicidal effect SETVI [12] [%]	Pre-emergence herbicidal effect MATIN [13] [%]	Pre-emergence herbicidal effect ECHCG [14] [%]	Pre-emergence herbicidal effect VIOTR [15] [%]	Pre-emergence herbicidal effect ALOMY [16] [%]	Post-emergence herbicidal effect ABUTH [18] [%]	Post-emergence herbicidal effect SETVI [19] [%]	Post-emergence herbicidal effect MATIN [20] [%]	Post-emergence herbicidal effect VIOTR [21] [%]	Pre-emergence herbicidal effect AVEFA [22] [%]	also measured
Cc1nc(NC2CCOc3ccccc32)nc(N)c1C#N (racemic) [Example 1.25]	90	95	95	100	90	90	100	100	100	100	100	100	100	90	100						Pre-emergence herbicidal effect CYPES [9]: 100%; logp (HCOOH) ([17]; HCOOH): solid, m.p.: 213.3° C.; logp (HCOOH): 1.55; 1H-NMR (CDCl3, 400 MHZ, δ in ppm): 2.10
Cc1nc(N[C@@H]2CCCc3ccccc32)nc(N)c1C#N [Example 1.18]	85	87	83	93	87	85	100	100	100	100	100	100	100		100	85	90	80	85	90	Pre-emergence herbicidal effect CYPES [9]: 80%; Pre-emergence herbicidal effect ABUTH [23]: 100%; Post-emergence herbicidal effect PHBPU [24]: 80%
Cc1nc(N[C@@H]2CCOc3c(F)cccc32)nc(N)c1C#N [Example 1.26]	85	90	95	90	90	85	100	100	100	100	100	100	100	100	100	80		80	85	90	Post-emergence herbicidal effect POLCO [25]: 80%; Pre-emergence herbicidal effect ABUTH [23]: 80%; Pre-emergence herbicidal effect POLCO [26]: 90%; Post-emergence herbicidal effect PHBPU [24]: 90%
N#Cc1cnc(N[C@@H]2CCCc3ccccc32)nc1N [Example 1.30, 4-Amino-2-[(1R)-1,2,3,4-tetrahydronaphthalen-1-ylamino]pyrimidine-5-carbonitrile]	93	100	90	80	100	95	100	100	100	100	100	100	100	100	100		95	80		100	Post-emergence herbicidal effect AVEFA [27]: 100%; Post-emergence herbicidal effect POLCO [25]: 80%; Pre-emergence herbicidal effect POLCO [26]: 100%; chromatographic logP [17]: 1.92
Cc1ccc2c(c1)[C@H](Nc1ncc(Br)c(N)n1)[C@@H](C)C2 [Example 1.67, 5-Bromo-N2-[(1R,2S)-2,6-dimethyl-2,3-dihydro-1H-inden-1-yl]pyrimidine-2,4-diamine]	90	87	85	90	95	85	100	95	100	100	100	100	100	100	95	90	87	80	80	80	Post-emergence herbicidal effect POLCO [25]: 85%; Pre-emergence herbicidal effect ABUTH [23]: 90%; Pre-emergence herbicidal effect POLCO [26]: 100%; Post-emergence herbicidal effect PHBPU [24]: 93%; chromatographic logP [17]: 1.3
Cc1ccc2c(c1)[C@H](Nc1ncc(C#C[Si](C)(C)C)c(N)n1)[C@@H](C)C2 [Example 1.98, N2-[(1R,2S)-2,6-Dimethyl-2,3-dihydro-1H-inden-1-yl]-5-[(trimethylsilyl)ethynyl]-pyrimidine-2,4-diamine]							80		100	100	80	80		100							Pre-emergence herbicidal effect CYPES [9]: 100%; chromatographic logP [17]: 2.28
Cc1ccc2c(c1)[C@H](Nc1nc(C)c([N+](=O)[O-])c(N)n1)[C@@H](C)C2 [Example 1.120]	90		90	85	100		100	90	100	100	100	100	100	100	100	90	85	80	90	80	Post-emergence herbicidal effect POLCO [25]: 80%; Pre-emergence herbicidal effect POLCO [26]: 100%; Post-emergence herbicidal effect PHBPU [24]: 100%
